Reference: patent US6573275B1, “Bicyclic amines” (Syngenta Limited, priority 1995, dated 2003)

system: peach aphid (Myzus persicae); experiment: Insecticidal test against peach aphid, infested Chinese cabbage leaves sprayed; type: in vivo; settings: peach aphid (Myzus persicae) on Chinese cabbage leaves, sprayed with 500 ppm composition unless otherwise stated, mortality assessed after 3 days
Procedure, shortened: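 Aphid-infested Chinese cabbage leaves were sprayed with compound at 500 ppm unless otherwise stated, formulated in acetone/ethanol diluted with water containing 0.05% Synperonic NP8. Mortality was assessed after 3 days.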

Row | SMILES | Score (grading of mortality)
1 | N#CC1(c2cncc(Cl)c2)CC2CCC(C1)N2CCC(=O)O (stereo not drawn) [Compound 141, exo-3-(5-chloropyrid-3-yl)-endo-3-cyano-8-(2-carboxyethyl)-8-azabicyclo[3.2.1]octane] | A (A indicates 80-100% mortality)
2 | N#CC1(c2cncc(Cl)c2)CC2CCC(C1)N2CC(F)F (stereo not drawn) [Compound 142, exo-3-(5-chloropyrid-3-yl)-endo-3-cyano-8-(2,2-difluoroethyl)-8-azabicyclo[3.2.1]octane] | A (A indicates 80-100% mortality)
3 | N#CC1(c2cncc(Br)c2)CC2CCC(C1)N2CC(F)(F)F (stereo not drawn) [Compound 143] | A (A indicates 80-100% mortality)
4 | N#CC1(c2cncc(Cl)c2)CC2CCC(C1)N2C(=O)F (stereo not drawn) [Compound 144, exo-3-(5-chloropyrid-3-yl)-endo-3-cyano-8-(fluorocarbonyl)-8-azabicyclo[3.2.1]octane] | A (A indicates 80-100% mortality)
5 | CN(C(=O)N1C2CCC1CC(C#N)(c1cncc(Cl)c1)C2)c1ccccc1 (stereo not drawn) [Compound 145] | A (A indicates 80-100% mortality)
6 | CC(C)(C)NC(=O)N1C2CCC1CC(C#N)(c1cncc(Cl)c1)C2 (stereo not drawn) [Compound 146, exo-3-(5-chloropyrid-3-yl)-endo-3-cyano-8-(tert-butylcarbamyl)-8-azabicyclo[3.2.1]octane] | A (A indicates 80-100% mortality)
7 | CN1C2CCC1CC(C#N)(c1cncc(I)c1)C2 (stereo not drawn) [Compound 147, exo-3-(5-iodopyrid-3-yl)-endo-3-cyano-8-methyl-8-azabicyclo[3.2.1]octane] | A (A indicates 80-100% mortality)
8 | CN1C2CCC1CC(C#N)(c1cncc(O)c1)C2 (stereo not drawn) [Compound 148, exo-3-(5-hydroxypyrid-3-yl)-endo-3-cyano-8-methyl-8-azabicyclo[3.2.1]octane] | B (B indicates 40-79% mortality)
9 | N#CC1(c2cncc(Cl)c2)CC2CCC(C1)N2C(=O)N1CCOCC1 (stereo not drawn) [Compound 149] | A (A indicates 80-100% mortality)
10 | CC(C)N(C(=O)N1C2CCC1CC(C#N)(c1cncc(Cl)c1)C2)C(C)C (stereo not drawn) [Compound 150, exo-3-(5-chloropyrid-3-yl)-endo-3-cyano-8-(diisopropylcarbamyl)-8-azabicyclo[3.2.1]octane] | A (A indicates 80-100% mortality)
11 | N#CC1(c2cncc(Cl)c2)CC2CCC(C1)N2c1c(F)c(F)c(F)c(F)c1F (stereo not drawn) [Compound 151, exo-3-(5-chloropyrid-3-yl)-endo-3-cyano-8-pentafluorophenyl-8-azabicyclo[3.2.1]octane] | A (A indicates 80-100% mortality)
12 | N#CC1(c2cncc(Cl)c2)CC2CCC(C1)N2c1cc(Cl)ncn1 (stereo not drawn) [Compound 152] | A (A indicates 80-100% mortality)
13 | CC(=O)Nc1nc(CN2C3CCC2CC(C#N)(c2cncc(Cl)c2)C3)cs1 (stereo not drawn) [Compound 153] | A (A indicates 80-100% mortality)
14 | N#CC1(c2cncc(Cl)c2)CC2CCC(C1)N2C(=O)Nc1ccc(F)c(Cl)c1 (stereo not drawn) [Compound 154] | B (B indicates 40-79% mortality)
15 | N#CC1(c2cncc(Cl)c2)CC2CCC(C1)N2c1cncc(Cl)c1 (stereo not drawn) [Compound 155] | A (A indicates 80-100% mortality)
16 | N#CC1(c2cncc(Cl)c2)CC2CCC(C1)N2C(=O)c1cnccc1C(F)(F)F (stereo not drawn) [Compound 157] | C (C indicates less than 40% mortality)
17 | N#CC1(c2cncc(Cl)c2)CC2CCC(C1)N2Cc1nnsc1Cl (stereo not drawn) [Compound 158, exo-3-(5-chloropyrid-3-yl)-endo-3-cyano-8-((5-chloro-1,2,3-thiadiazol-4-yl)methyl)-8-azabicyclo[3.2.1]octane] | A (A indicates 80-100% mortality)
18 | CC(C=O)(c1ccccc1)N1C2CCC1CC(C#N)(c1cncc(Cl)c1)C2 (stereo not drawn) [Compound 159, exo-3-(5-chloropyrid-3-yl)-endo-3-cyano-8-(2-phenyl-3-oxo-prop-2-yl)-8-azabicyclo[3.2.1]octane] | A (A indicates 80-100% mortality)
19 | N#CC1(c2cncc(Cl)c2)CC2CCC(C1)N2CCCC(F)(F)F (stereo not drawn) [Compound 160] | A (A indicates 80-100% mortality)
20 | COc1cncc(C2(C#N)CC3CCC(C2)N3CC(F)(F)F)c1 (stereo not drawn) [Compound 161] | A (A indicates 80-100% mortality)
21 | CCOC(=O)c1ccc(N2C3CCC2CC(C#N)(c2cncc(Cl)c2)C3)cc1 (stereo not drawn) [Compound 162] | C (C indicates less than 40% mortality)
22 | N#CC1(c2cnc(F)c(Cl)c2)CC2CCC(C1)N2CC(F)(F)F (stereo not drawn) [Compound 163] | C (C indicates less than 40% mortality)
23 | CC(=O)Nc1cncc(C2(C#N)CC3CCC(C2)N3C)c1 (stereo not drawn) [Compound 165, exo-3-(5-acetylamidopyrid-3-yl)-endo-3-cyano-8-methyl-8-azabicyclo[3.2.1]octane] | A (A indicates 80-100% mortality)
24 | COc1cncc(C2(C#N)CC3CCC(C2)N3CC#N)c1 (stereo not drawn) [Compound 166] | A (A indicates 80-100% mortality)

Row | SMILES | Score (grading of mortality)
25 | N#CC1(c2cncc(Cl)c2)CC2CCC(C1)N2c1nc(CCl)ns1 (stereo not drawn) [Compound 167] | A (A indicates 80-100% mortality)
26 | N#CC1(c2cncc(Cl)c2)CC2CCC(C1)N2c1ncc(Cl)s1 (stereo not drawn) [Compound 168, exo-3-(5-chloropyrid-3-yl)-endo-3-cyano-8-(5-chlorothiazol-2-yl)-8-azabicyclo[3.2.1]octane] | A (A indicates 80-100% mortality)
27 | N#CN1C2CCC1CC(C#N)(c1cncc(Cl)c1)C2 (stereo not drawn) [Compound 169, exo-3-(5-chloropyrid-3-yl)-endo-3-cyano-8-cyano-8-azabicyclo[3.2.1]octane] | A (A indicates 80-100% mortality)
28 | N#CC1(c2cncc(Cl)c2)CC2CCC(C1)N2c1ccc(C(=O)O)cc1 (stereo not drawn) [Compound 170] | B (B indicates 40-79% mortality)
29 | C=COC(=O)N1C2CCC1CC(C#N)(c1cncc(OC)c1)C2 (stereo not drawn) [Compound 171] | A (A indicates 80-100% mortality)
30 | COc1cncc(C2(C#N)CC3CCC(C2)N3)c1 (stereo not drawn) [Compound 172] | A (A indicates 80-100% mortality)
31 | N#CC1(c2cncc(Cl)c2)CC2CCC(C1)N2c1ccc(Cl)cc1 (stereo not drawn) [Compound 173] | A (A indicates 80-100% mortality)
32 | CN1C2CCC1CC(C#N)(c1cncc(C(F)(F)F)c1)C2 (stereo not drawn) [Compound 174, exo-3-(5-trifluoromethylpyrid-3-yl)-endo-3-cyano-8-methyl-8-azabicyclo[3.2.1]octane] | A (A indicates 80-100% mortality)
33 | C=CC(C)(c1ccccc1)N1C2CCC1CC(C#N)(c1cncc(Cl)c1)C2 (stereo not drawn) [Compound 175, exo-3-(5-chloropyrid-3-yl)-endo-3-cyano-8-(2-phenylbut-3-en-2-yl)-8-azabicyclo[3.2.1]octane] | A (A indicates 80-100% mortality)
34 | CC(CO)(c1ccccc1)N1C2CCC1CC(C#N)(c1cncc(Cl)c1)C2 (stereo not drawn) [Compound 176, exo-3-(5-chloropyrid-3-yl)-endo-3-cyano-8-(2-phenyl-3-hydroxyprop-2-yl)-8-azabicyclo[3.2.1]octane] | A (A indicates 80-100% mortality)
35 | N#CC1(c2cncc(C(F)(F)F)c2)CC2CCC(C1)N2C=O (stereo not drawn) [Compound 177] | A (A indicates 80-100% mortality)
36 | CC(=O)OCC(C)(c1ccccc1)N1C2CCC1CC(C#N)(c1cncc(Cl)c1)C2 (stereo not drawn) [Compound 178, exo-3-(5-chloropyrid-3-yl)-endo-3-cyano-8-(2-phenyl-3-acetoxyprop-2-yl)-8-azabicyclo[3.2.1]octane] | A (A indicates 80-100% mortality)
37 | CC(F)(CN1C2CCC1CC(C#N)(c1cncc(Cl)c1)C2)c1ccccc1 (stereo not drawn) [Compound 179, exo-3-(5-chloropyrid-3-yl)-endo-3-cyano-8-(2-fluoro-2-phenylprop-1-yl)-8-azabicyclo[3.2.1]octane] | A (A indicates 80-100% mortality)
38 | CC(C)CC(C)(C)CCN1C2CCC1CC(C#N)(c1cncc(Cl)c1)C2 (stereo not drawn) [Compound 180] | A (A indicates 80-100% mortality)
39 | C=COC(=O)N1C2CCC1CC(C#N)(c1cncc(Br)c1)C2 (stereo not drawn) [Compound 181] | A (A indicates 80-100% mortality)
40 | N#CC1(c2cncc(Cl)c2)CC2CCC(C1)N2c1ncccn1 (stereo not drawn) [Compound 182] | A (A indicates 80-100% mortality)
41 | C=COC(=O)N1C2CCC1CC(C#N)(c1cncc(C(F)(F)F)c1)C2 (stereo not drawn) [Compound 183] | A (A indicates 80-100% mortality)
42 | N#CC1(c2cncc(C(F)(F)F)c2)CC2CCC(C1)N2 (stereo not drawn) [Compound 184] | A (A indicates 80-100% mortality)
43 | C=COC(=O)N1C2CCC1CC(C#N)(c1cccnc1)C2 (stereo not drawn) [Compound 185, exo-3-(Pyrid-3-yl)-endo-3-cyano-8-(vinyloxycarbonyl)-8-azabicyclo[3.2.1]octane] | A (A indicates 80-100% mortality)
44 | N#CC1(c2cncc(C(F)(F)F)c2)CC2CCC(C1)N2Cc1cccc(Cl)c1 (stereo not drawn) [Compound 186] | A (A indicates 80-100% mortality)
45 | N#CC1(c2cncc(Cl)c2)CC2CCC(C1)N2c1ccnc(Cl)n1 (stereo not drawn) [Compound 187] | C (C indicates less than 40% mortality)
46 | N#CC1(c2cncc(Cl)c2)CC2CCC(C1)N2c1ccc(C(F)(F)F)cc1 (stereo not drawn) [Compound 188] | A (A indicates 80-100% mortality)
47 | CN1C2CCC1CC(C#N)(c1cncc(-n3cccc3)c1)C2 (stereo not drawn) [Compound 189, exo-3-(5-(pyrrol-1-yl)pyrid-3-yl)-endo-3-cyano-8-methyl-8-azabicyclo[3.2.1]octane] | A (A indicates 80-100% mortality)
48 | CC(C)NC(C)(CN1C2CCC1CC(C#N)(c1cncc(Cl)c1)C2)c1ccccc1 (stereo not drawn) [Compound 191, exo-3-(5-chloropyrid-3-yl)-endo-3-cyano-8-(2-(isopropylamino)-2-phenylprop-1-yl)-8-azabicyclo[3.2.1]octane] | A (A indicates 80-100% mortality)
